Molecules are shown by their SMILES.

As a reminder, the IC50 is the concentration that gives 50% inhibition.

Data set [1] has as its system MCF-7 cells. The data set can be described thus: Tin and platinum uptake by ICP-MS. The format is cell-based, human. The note with it: 24 h, at IC50 (CV assay): cisplatin 15.83 µM, Ph3SnL1 0.218 µM. The method, then: The cellular uptake features of metal-based cytotoxic drugs strongly impact the underlying anticancer performance. Intracellular tin and platinum uptake in MCF-7 cells has been investigated with the aid of inductively coupled plasma mass spectrometry (ICP-MS) analysis. The treatment of cells with Ph3SnL1 and cisplatin for 24 h in concentrations corresponding to their IC50 values, as obtained by the CV assay, was performed.
The tin and platinum uptake analysis was performed on MCF-7 cells with the aid of inductively coupled plasma mass spectrometry (ICP-MS). The cells were seeded in T25 flasks and allowed to grow. After 24 h, the exponentially growing cells were treated with 10 mL of Ph3SnL1 and cisplatin in concentrations corresponding to their IC50 values for 24 h, and thereafter trypsinised and collected by centrifugation at 1200 rpm for 8 min. Using 5 mL of ice-cold PBS the cells were washed and the metal uptake concentration in prepared samples was determined according to the previously described procedure. A Thermo Scientific iCAP Qc ICP-MS (Thermo Scientific, Bremen, Germany) instrument using the supplied autotune protocols and operational software Qtegra was employed for metal uptake determination. The measurements were performed on isotopes ^119Sn, ^120Sn, ^195Pt, and ^198Pt and the concentrations of metals were expressed as ppb (µg/L).

In data set [2] the test system is PC-3 (human prostate cancer) cells. The data set can be described thus: MTT assay, PC-3 cells. The format is cell-based. As to conditions: MTT assay, 48 h incubation; read-out: IC50 (mean ± SD), PC-3, MTT. The method, then:
(§1) The cell proliferations of ligand precursors and organotin(IV) compounds were evaluated with the aid of MTT (3-(4,5-dimethylthiazol-2-yl)-2,5-12 diphenyltetrazolium bromide) and CV (crystal violet) assays toward prostate (PC-3), colon (HT-29), breast (MCF-7) and hepatic (HepG2) cancer cell lines, and normal mouse embryonic fibroblast cells (NIH 3T3). The cells were cultivated in T75 flasks containing 10 mL of complete medium and kept at 37 °C and 5% CO2 […]. The nutrient medium was RPMI-1640 (PAA Laboratories) supplemented with 10% foetal bovine serum, L-glutamine, and penicillin/streptomycin (Sigma). Afterward, 5.000 cells of PC-3 and MCF-7 and 1.500 cells of HT-29 and HepG2 were transferred into 96 well-plates and used for MTT and CV assays. For microscopy investigations as well as FACS measurements (except for ROS/RNS measurements), MCF-7 cells were seeded overnight in 6-well plates (150,000 cells/well) in […] of complete medium. […] In all assays, control cells were untreated MCF-7 cells incubated for the same time period as treated cells and treated with appropriate reagents in various assays. BD FACS Aria III was used for flow cytometry experiments and results were analysed using BD FACSDiva software (BD Biosciences, Heidelberg, Germany) and Cyflogic (V 1.2.1, CyFlo Ltd., Turku, Finland). A fluorescence microscope Invitrogen EVOS FL 2 Auto 2 Cell Imaging System was used for visualization of the cells as well as for detection of fluorescence in the cells.
(§2) Ligands HL1‒HL3, organotin(IV) compounds, and cisplatin were investigated in 9 different concentrations (100, 50, 10, 5, 1, 0.5, 0.1, 0.05, 0.01 μM). Using the complete medium, each stock solution of the test compounds (20 mM in DMSO) was diluted to obtain the working solution. The final concentration of DMSO never overstepped 0.5%, which is non-toxic to the cells. Three technical replicates were performed for each concentration. The treated cells were incubated for 48 h at 37 °C under 5% CO2 and the viability of the cells was determined using MTT and CV assays according to the literature procedure. The IC50 values, defined as 50% inhibitory concentration, were calculated with a four-parameter logistic function and presented in a mean. All experiments were performed in triplicate.
(In general: Tetrazolium dyes change colour on reduction, which living cells bring about.)

In data set [3] the test system is MCF-7 cells. Briefly: ROS/RNS (DHR) and NO (DAF-FM) production, flow cytometry. The format is cell-based, human. As to conditions: 48 h, IC50 concentration. An excerpt:
Reactive oxygen (ROS) and nitrogen species (RNS) are natural by-products of the aerobic metabolism in cells. At physiological concentrations, they play a significant role in regulating numerous cellular processes. On the other hand, it is well-known that the reactive oxygen (O2^•−, H2O2, OH^•−) and nitrogen species (NO) are highly reactive molecules that easily damage cells by interacting with biomolecules such as proteins, lipids, carbohydrates, and nucleic acids, thus triggering different pathological conditions (inflammation, cardiovascular disorders, neurodegenerative diseases, and the formation of cancer cells).
For the investigation of ROS/RNS production the cells from the T25 flask were collected by applying 1 mL of trypsin and diluted with 9 mL of complete medium. Using 1 mL of DHR (dihydrorhodamine) working solution the cells were stained and incubated at 37 °C and 5% CO2 for 10 min. The staining process was stopped by applying 4 mL of complete medium, then the solution was centrifuged for 3 min at 1000 rpm and the supernatant was discarded. The cells were resuspended in complete medium (1 mL/well) and seeded in a 6 well plate. […] The prepared cells were analysed by flow cytometry.
The cells were washed with PBS and then treated with 1 mL of DAF-FM (4-amino-5-methylamino-2,7′-diflurofluorescin diacetate) working solution. […] The prepared cells were analysed by flow cytometry.
Background: A flow cytometer gives signals particle by particle.

For data set [4], the system named is MCF-7 (breast cancer) cells. Briefly: MTT assay, MCF-7 cells. The format is cell-based, human. As to conditions: for IC50: MTT assay, 48 h incubation, read-out: IC50 (mean ± SD), MCF-7, MTT. The method, then: as §1, §2
Data set [5] has as its system MCF-7 cells. The data set can be described thus: Cell cycle analysis (DAPI, flow cytometry). The format is cell-based, human. As to conditions: 48 h, IC50 dose. As for the experimental part: The mode of action was further investigated by analysing the effects of Ph3SnL1 and cisplatin on the cell cycle phase distribution of MCF-7 cells. This was evaluated by cytofluorimetric analysis using DAPI staining. […] While cisplatin acts on DNA (among other effects), the lipophilic cationic nature of triphenyltin(IV) may guide it preferentially to mitochondria to intervene with cells’ energy metabolism.
The Falcon tubes were centrifuged for 3 min at 1000 rpm and the supernatant was discarded. Afterwards, the cells were washed with 1 mL of PBS, centrifuged for 3 min at 1000 rpm and the supernatant was discarded. The cells were resuspended in 300 μL of ice-cold PBS buffer and then fixed by adding them dropwise to 700 μL of ice-cold absolute ethanol. The cells were stored for 24 h at 4 °C, then centrifuged for 3 min at 1000 rpm, washed with PBS and stained with 1 mL of DAPI (4′,6-diamidino-2-phenylindole) working solution [39]. The prepared cells were incubated at room temperature for 10 min and analysed by flow cytometry.

As for `O=C(CCc1nc(-c2ccccc2)c(-c2ccccc2)o1)[O][Sn]([c]1ccccc1)([c]1ccccc1)[c]1ccccc1` [Ph3SnL1, (3-(4,5-Diphenyloxazol-2-yl)propanoato)triphenyltin(IV)], the “intracellular metal (tin / platinum) uptake” value in data set [1] is “two-fold lower concentration of tin in MCF-7 cells in comparison to platinum”. Besides, the 50% inhibitory concentration (IC50) in data set [2] was determined as 0.181 ± 0.027 µM; in data set [4], 0.132 ± 0.021 µM. The “production of ROS/RNS species” value in data set [3] was “does not affect the production of ROS and RNS”. Further, the “fold higher activity compared to cisplatin against MCF-7” value in data set [4] (Table 1 IC50 values, 48 h) is “up to 120 fold”. For the same compound, the “cell cycle phase distribution” value in data set [5] was “does not lead to any significant changes in the cell cycle distribution”.
Take `N.N.[Cl][Pt][Cl]` [cisplatin, reference compound]: in data set [1], the “intracellular metal (tin / platinum) uptake” value is on record as “approximately twofold higher platinum concentration in MCF-7 cells compared to tin”. In data set [2], the IC50 is 14.3 ± 0.26 µM. Further, the “production of ROS/RNS species” value in data set [3] was “elevates the production of both reactive oxygen and nitrogen species”. In addition, the IC50 in data set [4] was determined as 15.2 ± 1.04 µM. In data set [5], the “cell population in G1/G0 phase” value is given as “considerable decrease”; the “cell population in S and G2/M phases” value was “increase”; the “population of cells in the sub-G1 phase” value is on record as “did not lead to any observable changes”.

Source of the values: PMC8198038, “In Vitro Evaluation of Antiproliferative Properties of Novel Organotin(IV) Carboxylate Compounds with Propanoic Acid Derivatives on a Panel of Human Cancer Cell Lines” (Molecules, 2021).
